One block for each compound: values may come before it.
Columns and labels:
[1] = system: human gut microbiome samples; experiment: Combinatorial drug pools incubated with human gut microbiome samples, LC-qTOF MS; assay type: in vitro ADME; conditions: for metabolism by the human gut microbiome (log2 fold change in amount of drug): 11 individuals randomly selected from the 60 studied, time span of 24 hours
Text: Beginning with the 1,760 FDA-approved drugs in the MicroSource Pharmakon library, a single UHPLC-qTOF MS method was optimized (C18 column; methanol:water gradient; positive ionization mode) that maximizes the number of detected drugs while minimizing run time. […] These drugs, whose molecular weights vary from ˜155 to ˜800 Da, span a wide range of clinical indications. Many have limited or highly variable bioavailability. Other criteria (specific chemical groups, bioavailability, etc) may be used to select other reference drugs, or drugs may be selected from pre-clinical compound libraries. A computational simulation was performed to determine the number of inputs (drugs) that can be represented in increasing numbers of pools, as a function of changing parameters for replicates and overlap. One such pooling scheme assigns each of 271 drugs to a subset of 21 pools, such that each drug is placed in 4 pools but shares a pool with each other drug at most twice as shown in FIG. 5B. FIG. 5B illustrates combinatorial pooling of 271 drugs indicated in black circles into 21 pools (A-U). Pools V-X are no-drug controls. Other pooling schemes may alter the number of drugs, the number of pools, the number of pools each drug is placed in, or the overlap between the pooling patterns of each drug. […] Each of these pools was incubated with each of 60 human gut microbiome samples and 76 defined bacterial species/strains. Samples were collected over time. Liquid chromatography-coupled quadrupole time-of-flight mass spectrometry (MS) described above was used to quantify drug levels by targeted analysis. For each candidate drug-microbiome interaction, 4 pools provide quadruplicate replication for each drug in 4 distinct contexts of other drugs. The other pools serve as negative controls. In this manner, over 16,000 time-series profiles (271 drugs by 60 communities) were collected, each in quadruplicate, from only 21 drug pools.

[2] = system: 76 defined human gut commensals; assay type: in vitro ADME
Method: Using the combinatorial pooling method described above, each of the 21 drug pools was incubated, plus 3 no-drug control pools, with 76 defined human gut commensals from phyla shown in FIG. 8 grown in pure culture. Over 20,000 time-series profiles were collected, each in quadruplicate, of these specific drug-microbe interactions.

[3] = Liver S9 enzyme assay of conversion to BVU; assay type: in vitro ADME
Method: Human and murine S9 liver fractions are purchased from Thermo Fisher Scientific (HMS9L and MSMCPL, respectively). Enzyme assays are performed for the deglycosylation of arabinosyluracil derivatives. In brief, assays are performed at 37° C. Reaction volumes are 150 μL with liver S9 fractions at 5 μg/μL and BRV or SRV at 100 μM in 10 mM phosphate buffer (pH 7.4). Reactions are initiated by addition of drugs to pre-warmed reaction mixture. 10 μL samples are collected and quenched in 10 μL acetonitrile on ice at 0, 5, 10, 15, 20, 30, 45, 60, 90, 120, 180, 270, and 360 min after initiation. Substrates and reaction product are extracted and quantified by LC-MS as described below.

[4] = patients taking 5-fluorouracil; before withdrawal from the market; cited from earlier work
BT4554 = experiment: B. thetaiotaomicron loss-of-function screen, bt4554 deletion and complementation; assay type: in vitro ADME, Bacteroides thetaiotaomicron; conditions: BT4554 dependence
Text: Two independent strategies were developed to identify the microbiome-encoded DMEs responsible for these chemical transformations. For members of the Bacteroides (the most prominent genus in the human gut microbiome in the experiments), Proteobacteria, and other genetically tractable species, Insertion Sequencing (INSeq) is used to make mapped, arrayed transposon mutant libraries as described in Goodman 2009 and Goodman 2011. From these libraries, a representative set of mutants was identified that collectively include disruptions in most non-essential genes. Each mutant was incubated with the pool of drugs metabolized by the parent species. Genes required for drug metabolism by LC-MS were identified as above.
1,352 B. thetaiotaomicron mutants were selected from an arrayed library as described in Goodman 2009 that disrupt ˜70% of its non-essential genes. Each mutant was incubated with a pool of 30 drugs metabolized by this organism. Drug levels were measured over time as above. […] FIGS. 10A-C show two examples: one of these is brivudine, an antiviral whose primary metabolite (bromovinyluracil; BVU) is dangerously toxic for patients taking 5-fluorouracil, a principal therapy for colorectal cancer. With reference to FIGS. 10A-C, transposon mutants representing disruptions in 70% of B. thetaiotaomicron (Bt) non-essential genes were screened for metabolism of 30 drugs targeted by the parent strain.
The contribution of microbial drug metabolism to serum drug and metabolite exposure was directly quantified by specifically modulating this activity in otherwise identical mice. To this end, the capacity of ten individual bacterial species was first determined, representing five major phyla that dominate the mammalian gut microbiota, for their capacity to convert BRV to BVU as illustrated in FIG. 14A. […]
Frozen stocks are re-suspended in 4 mL pre-reduced GMM and incubated anaerobically at 37° C. for 14 h. […] Substrates and reaction product are extracted and quantified by LC-MS as described below. […]

Compound: COc1ccc(/C=C/C(=O)Nc2ccccc2C(=O)O)cc1OC [tranilast]
- interpersonal variability of metabolism by gut microbiome [1]: one individual that metabolized the drug to a much greater extent than the others
- metabolism by the human gut microbiome (log2 fold change in amount of drug) [1]: metabolized by the human gut microbiome

Compound: CC(=O)OCC(=O)[C@@]12N=C(C)O[C@@H]1C[C@H]1[C@@H]3CCC4=CC(=O)C=C[C@]4(C)[C@H]3[C@@H](O)C[C@@]12C [deflazacort]
- metabolism by individual species [2]: most of the fast metabolizers of this drug are Bacteroides

- conversion of SRV to BVU ([3]; human S9 liver fractions): slowly converted
- conversion of SRV to BVU ([3]; murine S9 liver fractions): slowly converted
Compound: O=c1[nH]c(=O)n([C@@H]2O[C@H](CO)[C@@H](O)[C@@H]2O)cc1/C=C/Br [SRV, sorivudine]
- patients killed by BVU from the drug [4]: 18 patients
- conversion of SRV to BVU by B. thetaiotaomicron (BT4554): slowly converts SRV to BVU in a BT4554-dependent manner

Compound: Cc1nc2n(c(=O)c1CCN1CCC(c3noc4cc(F)ccc34)CC1)CCCC2 [risperidone]
- metabolism by the human gut microbiome (log2 fold change in amount of drug) [1]: metabolized by the human gut microbiome

Compound: CC(=O)OCC(CCn1cnc2cnc(N)nc21)COC(C)=O [Famcyclovir]
- metabolism by the human gut microbiome (log2 fold change in amount of drug) [1]: metabolized by the human gut microbiome
